According to patent US20180339015A1, “Therapeutic Nanoparticles Comprising An Antibiotic and Methods of Making and Using Same” (priority 2015, published 2018):

How the values were obtained:
Citrobacter spp = conditions: cited from earlier work
Salmonella spp = conditions: cited from earlier work
Enterobacter spp = conditions: cited from earlier work
E. coli = conditions: cited from earlier work
K. pneumoniae = conditions: cited from earlier work
Acinetobacter species = conditions: cited from earlier work
P. aeruginosa = conditions: cited from earlier work
Shigella spp = conditions: cited from earlier work
Klebsiella = Klebsiella thigh infection model, efficacy and biodistribution; assay type: in vivo
Method: CS-NPs were further tested for their efficacy and biodistribution in a Klebsiella thigh infection model. […] In summary. CS-NPs have the same efficacy as free CS in a thigh infection model after 24 hours.

[1] = mice, intravenous injection
K. pneumonia = K. pneumonia lung infection model; assay type: in vivo; conditions: single 40 mg/kg dose s.c., n=6
Method: CS-NPs were tested for their efficacy in a K. pneumonia lung infection model. Results are depicted in FIG. 11.

Substance	MIC90 (Citrobacter spp) [µg/mL]	MIC90 (Salmonella spp) [µg/mL]	MIC50 (Enterobacter spp) [µg/mL]	MIC90 (E. coli) [µg/mL]	MIC90 (K. pneumoniae) [µg/mL]	MIC90 (Acinetobacter species) [µg/mL]	MIC90 (P. aeruginosa) [µg/mL]	MIC90 (Shigella spp) [µg/mL]	bacteremia (Klebsiella; thigh infection model)	bacteria counts in site of infection (Klebsiella; thigh, after 24 hours)	LD50 [1] [mg/kg]	MTD [1] [mg/kg]	animals sterilized (K. pneumonia) [%]
colistin	≤ 1	≤ 1	≤ 1	≤ 2	≤ 1	≤ 2	≤ 4	≤ 0.5					
colistin sulphate [CS]									prevented bacteremia	significantly decreased bacteria counts	6	2	50
